According to patent publication US20020165267A1 (priority 2001, published 2002):

Columns and labels:
[1] = humans; set by the FDA; cited from earlier work
[2] = tested on: B. mycoides, B. thuringiensis, and B. subtilis; assay type: cell-based
[3] = tested on: Bacillus thuringiensis ATCC55055; Bacillus subtilis 1270; experiment: Agar diffusion test, clear zones of growth inhibition around wells; assay type: cell-based; conditions: Phloxine B 100 μg/ml; 50 μl per well; 37° C., 16 hours
Experimental: Sensitivity of bacteria to the commercially available Phloxine B measured by agar diffusion test. Principle of this microbiological assay: The bacteria were grown on Brain Heart Infusion (BHI) broth. Growth was analyzed by measuring turbidity with a spectrophotometer. During the logarithmic phase (OD of 0 3 at 600 nm), 200 μl of the bacterial culture was spread over the surface of an agar plate with a bent glass rod. Fifty μl of various concentrations of Phloxine B (200, 100, 50, 25, and 12.5 μg/ml diluted in the BHI broth) were added to the wells. The plate was then transferred to an incubator at 37° C. the appearance of clear zones around the wells after 16 hours, indicating inhibition of bacterial growth, was noted.

2′,4′,5′,7′-tetrachlorofluorecein disodium salt [Phloxine B]
acceptable daily intake (ADI) [1]: 1.25 mg/kg
reduction of the number of Colony-Forming Units ([2]; 100 μg/ml, printed also as factor of 100): more than two logs
inhibition of bacterial growth ([2]; 100, 75, 50, 25 μg/ml added in logarithmic growth phase, BHI broth): dose-dependent manner
antibiotic activity on bacteria ([2]; B. mycoides, B. thuringiensis, B. subtilis): very good antibiotic activity
decrease of bacterial count ([2]; dye added at 100 μg/ml, in minutes): 3 logs
size of clear zones compared with chloramphenicol [3]: half the inhibition zones observed with chloramphenicol at 200 μg/ml
